pIC50: −log10 of the molar value. Where two headings read alike, the source gives them in different places.

The results in this text go back to patent US20250092065A1, “2-(INDAZOL-5-YL)-6-(PIPERIDIN-4-YL)-1,7-NAPHTHYRIDINE DERIVATIVES AND RELATED COMPOUNDS AS MODULATORS FOR SPLICING NUCLEIC ACIDS AND FOR THE TREATMENT OF PROLIFERATIVE DISEASES” (REMIX THERAPEUTICS INC., priority 2022, published 2025).

The test system of data set [1] is MYB mRNA. Put plainly: RT-qPCR splicing assay, MYB mRNA canonical (CJ) and alternative (AJ) junction. It counts as cell-based, human. The note with it: Homo sapiens; for AC50: MYB alternative junction mRNA, read-out: MYB AJ (increase in AJ mRNA, AC50). In outline: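 A673 or K562 cells treated 24 h at 37 °C with an 11-point 3-fold dilution series (top 10 uM, DMSO ≤0.25%). Lysates went directly to one-step RT-qPCR quantifying canonical (CJ) and alternative-exon (AJ) junctions, normalized to GAPDH, GUSB or PPIA. Values from ΔΔCt versus DMSO, RQ = 2^(−ΔΔCt), expressed as percentage response.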
(Real-time PCR tracks product formation cycle by cycle.)

The subject of data set [2] is Target C. Description: HiBiT protein abundance assay, Target C (K562 HiBiT knock-in). The data set is classed as cell-based, human. The following applies: HiBiT knock-in K562 cells, 24 hours, top dose 10 μM. Summed up: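 K562 HiBiT knock-in cells (10000/well) were treated 24 h at 37° C with a 10-point 3-fold dilution series (top 10 μM final, ≤0.25% DMSO). HiBiT luminescence was read after lytic LgBiT detection. Percent response used unmodified K562 and DMSO-treated knock-in controls, and IC50 came from a four-parameter fit at 50% of untreated.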
For orientation: With HiBiT, luminescence reflects the tagged protein that the partner subunit can reach.

The subject of data set [3] is MYB. Put plainly: HiBiT protein abundance assay, MYB (K562 HiBiT knock-in). It counts as cell-based, human. The note with it: HiBiT knock-in K562 cells, 24 hours, top dose 10 μM. Summed up:
(§1)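 Steps: seed HiBiT knock-in K562 cells; add compound in 10-point 3-fold series from 10 μM final; incubate 24 h, 37 °C; add lytic HiBiT reagent, shake 5 min, wait 10 min; read luminescence. Normalize to parental K562 and DMSO controls, fit 4PL, take IC50.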

Data set [4] has as its system HTT. Put plainly: HiBiT protein abundance assay, HTT (K562 HiBiT knock-in). The data set is classed as cell-based, human. The note with it: HiBiT knock-in K562 cells, 24 hours, top dose 10 μM. Summed up:
as §1

The test system of data set [5] is K562 cells. Put plainly: Cell Titer Glo 2.0 cell viability (toxicity) assay, K562. The following applies: 500 cells/well, 72 hours. On the technique in general: In ATP-based viability assays light output follows the ATP content of the culture.
Description: Compounds described herein were screened for toxicity in K562 (human chronic myelogenous leukemia) and SH-SY5Y (human neuroblastoma) cells using a Cell Titer Glo 2.0 assay.
Cells were plated at 500 cells/well (K562 cells) in 45 μL of IMDM supplemented with 10% FBS in a 384-well opaque plate. Wells containing only medium were used as a blank control. Test compounds (e.g., compounds of Formula (I) or (II)) were first serially diluted in DMSO then diluted 1:100 with EIDM+10% FBS. The final concentration of DMSO was 0.1% in each well. The cells were incubated for 72 hours at 37° C. and 5% CO2 before assaying with Cell Titer Glo 2.0 reagent.
Where [6] appears, read: MYB canonical junction mRNA, RT-qPCR, read-out: MYB CJ (decrease in CJ mRNA levels, IC50).
The mark [7] stands for this setting: canonical junction qPCR panel, Table 4, read-out: MYB IC50 (decrease in CJ mRNA levels).

A word on the AC50: it is the concentration giving half of the maximal activity seen. For orientation: pIC50 means −log10 of the IC50, conventionally taken in molar units. Regarding `Cc1nc2cc(O)c(-c3ccc4nc(N5CC[C@H](NC6(CF)CC6)C5)ccc4n3)cc2o1` (single isomer, unassigned) [Compound 489], the AC50 in data set [1] (RT-qPCR) was < 100 nM. The pIC50 in data set [1] (setting [6]), in data set [1] (setting [7]), in data set [2], in data set [3] and in data set [4] was > 7.00 in each case. The “Effect of Exemplary Compounds on Cell Viability, K562” value (“Effect of Exemplary Compounds” below) in data set [5] was “A (A represents <100 nM)”.
Take `Cc1nc2c(F)c(O)c(-c3ccc4nc(N5CC[C@@H](NC6(CF)CC6)C5)ccc4n3)cc2o1` (single isomer, unassigned) [Compound 491]: the concentration at half-maximal activity (AC50) in data set [1] (RT-qPCR) is < 100 nM. In addition, the pIC50 in data set [1] (setting [6]), in data set [1] (setting [7]), in data set [2], in data set [3] and in data set [4] was > 7.00 throughout. In addition, in data set [5], the “Effect of Exemplary Compounds” value was “A (A represents <100 nM)”.
For the compound `Cn1cc2cc(-c3ccc4nc(N5CCC(NC6(CF)CC6)C5)ccc4n3)c(O)c(F)c2n1` (stereo in doubt) [Compound 353, 7-fluoro-5-{6-[(3R)-3-{[1-(fluoromethyl)cyclopropyl]amino}pyrrolidin-1-yl]-1,5-naphthyridin-2-yl}-2-methylindazol-6-ol], the AC50 in data set [1] (RT-qPCR) was < 100 nM. For the same compound, the pIC50 in data set [1] (setting [6]), in data set [1] (setting [7]), in data set [2], in data set [3] and in data set [4] was > 7.00 each time. In addition, in data set [5], the “Effect of Exemplary Compounds” value is listed as “A (A represents <100 nM)”.
With `Cn1cc2cc(-c3ccc4nc(N5CCC(NC6(CF)CC6)C5)ccc4n3)c(O)c(F)c2n1` (stereo in doubt) [Compound 357, 7-fluoro-5-{6-[(3S)-3-{[1-(fluoromethyl)cyclopropyl]amino}pyrrolidin-1-yl]-1,5-naphthyridin-2-yl}-2-methylindazol-6-ol], the AC50 in data set [1] (RT-qPCR) is < 100 nM. The pIC50 in data set [1] (setting [6]), in data set [1] (setting [7]), in data set [2], in data set [3] and in data set [4] was > 7.00 each time. The “Effect of Exemplary Compounds” value in data set [5] was “A (A represents <100 nM)”.
`Cn1cc2cc(-c3ccc4nc(N5CCC(N)C5)ccc4n3)c(O)c(F)c2n1` (stereo in doubt) [Compound 363, 5-{6-[(3R)-3-aminopyrrolidin-1-yl]-1,5-naphthyridin-2-yl}-7-fluoro-2-methylindazol-6-ol]: the AC50 in data set [1] (RT-qPCR) is < 100 nM. The pIC50 in data set [1] (setting [6]), in data set [1] (setting [7]), in data set [2], in data set [3] and in data set [4] was > 7.00 each time. The “Effect of Exemplary Compounds” value in data set [5] was “A (A represents <100 nM)”.
With `Cc1nc2c(F)c(O)c(-c3ccc4nc(N5CC[C@@H](N[C@H]6C[C@@H](F)C6)C5)ccc4n3)cc2o1` (stereo in doubt) [Compound 375], the AC50 in data set [1] (RT-qPCR) is < 100 nM. Besides, the pIC50 in data set [1] (setting [6]), in data set [1] (setting [7]), in data set [2], in data set [3] and in data set [4] was > 7.00 in each case. Moreover, in data set [5], the “Effect of Exemplary Compounds” value is “A (A represents <100 nM)”.
`Cc1nc2c(C)c(O)c(-c3ccc4nc(N5CC[C@@H](N[C@H]6C[C@@H](F)C6)C5)ccc4n3)cc2o1` (stereo in doubt) [Compound 376]: the AC50 in data set [1] (RT-qPCR) is < 100 nM. The pIC50 in data set [1] (setting [6]), in data set [1] (setting [7]), in data set [2], in data set [3] and in data set [4] was > 7.00 each time. Moreover, the “Effect of Exemplary Compounds” value in data set [5] was “B (B represents 100-1000 nM)”.
Take `Cc1nc2c(C)c(O)c(-c3ccc4nc(N5CC[C@H](N[C@H]6C[C@@H](F)C6)C5)ccc4n3)cc2o1` (stereo in doubt) [Compound 377]: the concentration at half-maximal activity (AC50) in data set [1] (RT-qPCR) is < 100 nM. Also, the pIC50 in data set [1] (setting [6]), in data set [1] (setting [7]), in data set [2], in data set [3] and in data set [4] was > 7.00 in each case. Moreover, the “Effect of Exemplary Compounds” value in data set [5] is reported as “B (B represents 100-1000 nM)”.
Consider `Cc1nc2cc(O)c(-c3ccc4nc(N5CC[C@@H](N[C@H]6C[C@@H](F)C6)C5)ccc4n3)cc2o1` (stereo in doubt) [Compound 395], for which the AC50 in data set [1] (RT-qPCR) was 100 to 1000 nM. Also, the pIC50 in data set [1] (setting [6]), in data set [1] (setting [7]), in data set [2], in data set [3] and in data set [4] was 6.00 to 7.00 each time. Further, the “Effect of Exemplary Compounds” value in data set [5] is listed as “B (B represents 100-1000 nM)”.
For the compound `Cc1nc2cc(O)c(-c3ccc4nc(N5CC[C@H](N[C@H]6C[C@@H](F)C6)C5)ccc4n3)cc2o1` (stereo in doubt) [Compound 396], the AC50 in data set [1] (RT-qPCR) is 100 to 1000 nM. In addition, the pIC50 is 6.00 to 7.00 in data set [1] (setting [6]); 6.00 to 7.00 in data set [1] (setting [7]); > 7.00 in data set [2]; 6.00 to 7.00 in data set [3]; > 7.00 in data set [4]. For the same compound, in data set [5], the “Effect of Exemplary Compounds” value is on record as “B (B represents 100-1000 nM)”.
Consider `Cn1cc2cc(-c3ccc4nc(N5CC[C@@H](NC6(CF)CC6)C5)ccc4n3)c(O)cc2n1` [Compound 354, 5-{6-[(3R)-3-{[1-(fluoromethyl)cyclopropyl]amino}pyrrolidin-1-yl]-1,5-naphthyridin-2-yl}-2-methylindazol-6-ol], for which, in data set [1] (RT-qPCR), the AC50 is < 100 nM. Also, the pIC50 in data set [1] (setting [6]), in data set [1] (setting [7]), in data set [2], in data set [3] and in data set [4] was > 7.00 throughout. Also, the “Effect of Exemplary Compounds” value in data set [5] is on record as “B (B represents 100-1000 nM)”.
As to `Cn1cc2cc(-c3ccc4nc(N5CC[C@H](NC6(CF)CC6)C5)ccc4n3)c(O)cc2n1` [Compound 355, 5-{6-[(3S)-3-{[1-(fluoromethyl)cyclopropyl]amino}pyrrolidin-1-yl]-1,5-naphthyridin-2-yl}-2-methylindazol-6-ol], in data set [1] (RT-qPCR), the AC50 is < 100 nM. Also, the pIC50 in data set [1] (setting [6]), in data set [1] (setting [7]), in data set [2], in data set [3] and in data set [4] was > 7.00 throughout. For the same compound, in data set [5], the “Effect of Exemplary Compounds” value is on record as “B (B represents 100-1000 nM)”.
Turning to `Cc1c(O)c(-c2ccc3nc(N4CCC(NC5(CF)CC5)C4)ccc3n2)cc2cn(C)nc12` (centres unmarked) [Compound 360, 5-[6-(3-{[1-(fluoromethyl)cyclopropyl]amino}pyrrolidin-1-yl)-1,5-naphthyridin-2-yl]-2,7-dimethylindazol-6-ol], the AC50 in data set [1] (RT-qPCR) is < 100 nM. The pIC50 in data set [1] (setting [6]), in data set [1] (setting [7]), in data set [2], in data set [3] and in data set [4] was > 7.00 in each case. Further, the “Effect of Exemplary Compounds” value in data set [5] is “B (B represents 100-1000 nM)”.
For `Cc1c(O)c(-c2cc(C(C)O)c3nc(N4CCNCC4)ccc3n2)cc2cn(C)nc12` (centres unmarked) [Compound 364, 5-[4-(1-hydroxyethyl)-6-(piperazin-1-yl)-1,5-naphthyridin-2-yl]-2,7-dimethylindazol-6-ol], the AC50 in data set [1] (RT-qPCR) lay within 1000 to 10000 nM. Further, the pIC50 is 5.00 to 6.00 in data set [1] (setting [6]); 5.00 to 6.00 in data set [1] (setting [7]); 5.00 to 6.00 in data set [2]; 5.00 to 6.00 in data set [3]; < 5.00 in data set [4]. In data set [5], the “Effect of Exemplary Compounds” value is listed as “B (B represents 100-1000 nM)”.
